Reference: patent US20260176320A1, “MODULATORS OF G-PROTEIN COUPLED RECEPTORS” (priority 2018, published 2026)
Where two headings read alike, the source gives them in different places. Square brackets hold non-standard residues; d marks the D form. Peptide text beside a SMILES is read from it. * marks the point of attachment. X1 = O=C(CSCC(=O)*)NCCN1C(=O)c2ccccc2C1=O; Aib = CC(C)(N)C(=O)O

Columns and labels:
Assay type in all cases: cell-based
[1] = target: T1, GIP-R (Homo sapiens, UniProt P48546); test: HitHunter cAMP assay (GIP-R); settings: cAMP; for Emax: read-out: (Emax) GIP-R
T1 sequence (P48546 22-466): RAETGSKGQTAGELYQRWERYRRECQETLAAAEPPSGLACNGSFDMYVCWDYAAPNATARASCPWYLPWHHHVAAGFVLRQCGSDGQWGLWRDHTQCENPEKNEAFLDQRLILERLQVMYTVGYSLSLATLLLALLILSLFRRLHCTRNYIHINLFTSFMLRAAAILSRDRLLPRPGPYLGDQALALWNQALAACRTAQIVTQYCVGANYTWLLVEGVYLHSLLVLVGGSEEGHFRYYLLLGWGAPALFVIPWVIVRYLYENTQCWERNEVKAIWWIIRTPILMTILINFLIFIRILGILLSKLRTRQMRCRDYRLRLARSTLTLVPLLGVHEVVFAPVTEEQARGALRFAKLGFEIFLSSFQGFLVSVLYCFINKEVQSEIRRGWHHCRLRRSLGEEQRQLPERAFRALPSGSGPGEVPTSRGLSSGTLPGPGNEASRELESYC
Outline: (§1)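 cAMP, luminescence read: agonist 22-pt 2× dilution in DMSO, duplicate, 30 min RT on 10,000 cells/well in 1×HBSS/10 mM HEPES/625 μM IBMX/0.2% BSA; anti-cAMP reagent 1 h RT dark, then O/N RT dark before read.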

[2] = target: T2, GLP-1R (Homo sapiens, UniProt P43220); test: HitHunter cAMP assay (GLP-1R); settings: cAMP; for Emax: read-out: (Emax) GLP-1R
Outline: as §1

[3] = target: T2, GLP-1R; test: PathHunter β-arrestin assay
Outline: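 Luminescence read-out of β-arrestin recruitment (enzyme-fragment complementation detection, 3 h at room temperature in the dark) after 90 min agonist stimulation at 37 °C. Agonists tested as 22-point 2× serial dilutions in duplicate, in medium containing 0.2% BSA.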

[4] = Table 3, read-out: EC50 GIP-R/nM
[5] = Table 3A, read-out: EC50 GIP-R/nM
[6] = Table 3, read-out: EC50 GLP-1R/nM
[7] = Table 3A, read-out: EC50 GLP-1R/nM
[8] = PathHunter β-arrestin assay, read-out: β-arrestin activity EC50

T2 sequence (P43220 24-463): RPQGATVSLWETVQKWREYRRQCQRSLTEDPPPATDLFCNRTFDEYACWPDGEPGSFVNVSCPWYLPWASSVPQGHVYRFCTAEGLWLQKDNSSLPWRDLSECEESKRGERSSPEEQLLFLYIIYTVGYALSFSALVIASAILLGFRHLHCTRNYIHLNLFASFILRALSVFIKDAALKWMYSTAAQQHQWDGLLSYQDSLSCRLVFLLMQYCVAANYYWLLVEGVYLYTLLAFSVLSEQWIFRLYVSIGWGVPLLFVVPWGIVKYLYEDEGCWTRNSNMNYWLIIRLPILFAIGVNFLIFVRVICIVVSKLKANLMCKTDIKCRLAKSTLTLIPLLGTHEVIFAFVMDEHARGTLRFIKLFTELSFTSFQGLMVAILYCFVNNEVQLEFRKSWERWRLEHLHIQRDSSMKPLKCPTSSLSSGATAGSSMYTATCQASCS

| SMILES | Emax ([1]; Table 3) [%] | EC50 [1, 4] [nM] | Emax ([1]; Table 3A) [%] | EC50 [1, 5] [nM] | Emax ([2]; Table 3) [%] | EC50 [2, 6] [nM] | Emax ([2]; Table 3A) [%] | EC50 [2, 7] [nM] | EC50 [3, 8] [nM] | EC50 ([1]; EC50 GIP-R/nM, Table 3) [nM] | EC50 ([1]; EC50 GIP-R/nM, Table 3A) [nM] | EC50 ([2]; EC50 GLP-1R/nM, Table 3) [nM] | EC50 ([2]; EC50 GLP-1R/nM, Table 3A) [nM] | EC50 [3] [nM] |
| --- | --- | --- | --- | --- | --- | --- | --- | --- | --- | --- | --- | --- | --- | --- |
| CC[C@H](C)[C@H](NC(=O)[C@H](CO)NC(=O)[C@H](Cc1ccc(O)cc1)NC(=O)[C@H](CC(=O)O)NC(=O)[C@H](CO)NC(=O)[C@@H](NC(=O)[C@H](Cc1ccccc1)NC(=O)[C@@H](NC(=O)CNC(=O)[C@H](CCC(=O)O)NC(=O)CCNC(=O)NCCN1C(=O)CSC1=O)[C@@H](C)O)[C@@H](C)O)C(=O)N[C@@H](Cc1ccc(O)cc1)C(=O)N[C@@H](CC(C)C)C(=O)N[C@@H](CC(=O)O)C(=O)N[C@@H](CCCCN)C(=O)N[C@@H](CCC(N)=O)C(=O)N[C@@H](C)C(=O)N[C@@H](C)C(=O)NC(C)(C)C(=O)N[C@@H](CCC(=O)O)C(=O)N[C@@H](Cc1ccccc1)C(=O)N[C@H](C(=O)N[C@@H](CC(N)=O)C(=O)N[C@@H](Cc1c[nH]c2ccccc12)C(=O)N[C@@H](CC(C)C)C(=O)N[C@@H](CC(C)C)C(=O)N[C@@H](C)C(=O)NCC(=O)NCC(=O)N1CCC[C@H]1C(=O)N[C@@H](CO)C(=O)N[C@@H](CO)C(=O)NCC(=O)N[C@@H](C)C(=O)N1CCC[C@H]1C(=O)N1CCC[C@H]1C(=O)N1CCC[C@H]1C(=O)N[C@@H](CO)C(=O)N[C@@H](CCCCN)C(N)=O)C(C)C [Compound 148] | 64 to 67 | 1 to 10 | 64 to 67 | 1 to 10 | 99 | 0.1 to 1 | 99 | 0.1 to 1 | > 1000 | – | – | – | – | – |
| CC[C@H](C)[C@H](NC(=O)[C@H](CO)NC(=O)[C@H](CC(C)C)NC(=O)[C@H](CC(=O)O)NC(=O)[C@H](CO)NC(=O)[C@@H](NC(=O)[C@H](Cc1ccccc1)NC(=O)[C@@H](NC(=O)CNC(=O)[C@H](CCC(=O)O)NC(=O)CSCC(=O)NCCN1C(=O)c2ccccc2C1=O)[C@@H](C)O)[C@@H](C)O)C(=O)N[C@@H](Cc1ccc(O)cc1)C(=O)N[C@@H](CC(C)C)C(=O)N[C@@H](CC(=O)O)C(=O)N[C@@H](CCCCN)C(=O)N[C@@H](CCC(N)=O)C(=O)N[C@@H](C)C(=O)N[C@@H](C)C(=O)NC(C)(C)C(=O)N[C@@H](CCC(=O)O)C(=O)N[C@@H](Cc1ccccc1)C(=O)N[C@H](C(=O)N[C@@H](CC(N)=O)C(=O)N[C@@H](Cc1c[nH]c2ccccc12)C(=O)N[C@@H](CC(C)C)C(=O)N[C@@H](CC(C)C)C(=O)N[C@@H](C)C(=O)NCC(=O)NCC(=O)N1CCC[C@H]1C(=O)N[C@@H](CO)C(=O)N[C@@H](CO)C(=O)NCC(=O)N[C@@H](C)C(=O)N1CCC[C@H]1C(=O)N1CCC[C@H]1C(=O)N1CCC[C@H]1C(=O)N[C@@H](CO)C(=O)N[C@@H](CCCCN)C(N)=O)C(C)C [Compound 151] (X1-EGTFTSDLSIYLDKQAA[Aib]EFVNWLLAGGPSSGAPPPSK-NH2) | 117 to 119 | – | 117 to 119 | – | 103 to 107 | – | 103 to 107 | – | – | 0.1 to 1 | 0.1 to 1 | 1 to 10 | 1 to 10 | > 1000 |
| CC[C@H](C)[C@H](NC(=O)[C@H](CO)NC(=O)[C@H](Cc1ccc(O)cc1)NC(=O)[C@H](CC(=O)O)NC(=O)[C@H](CO)NC(=O)[C@@H](NC(=O)[C@H](Cc1ccccc1)NC(=O)[C@@H](NC(=O)CNC(=O)[C@H](CCC(=O)O)NC(=O)CSCC(=O)NCCN1Cc2ccccc2C1=O)[C@@H](C)O)[C@@H](C)O)C(=O)N[C@@H](Cc1ccc(O)cc1)C(=O)N[C@@H](CC(C)C)C(=O)N[C@@H](CC(=O)O)C(=O)N[C@@H](CCCCN)C(=O)N[C@@H](CCC(N)=O)C(=O)N[C@@H](C)C(=O)N[C@@H](C)C(=O)NC(C)(C)C(=O)N[C@@H](CCC(=O)O)C(=O)N[C@@H](Cc1ccccc1)C(=O)N[C@H](C(=O)N[C@@H](CC(N)=O)C(=O)N[C@@H](Cc1c[nH]c2ccccc12)C(=O)N[C@@H](CC(C)C)C(=O)N[C@@H](CC(C)C)C(=O)N[C@@H](C)C(=O)NCC(=O)NCC(=O)N1CCC[C@H]1C(=O)N[C@@H](CO)C(=O)N[C@@H](CO)C(=O)NCC(=O)N[C@@H](C)C(=O)N1CCC[C@H]1C(=O)N1CCC[C@H]1C(=O)N1CCC[C@H]1C(=O)N[C@@H](CO)C(=O)N[C@@H](CCCCN)C(N)=O)C(C)C [Compound 152] | 103 | – | 103 | – | 85 | – | 85 | – | – | 1 to 10 | 1 to 10 | 10 to 100 | 10 to 100 | > 1000 |
| CC[C@H](C)[C@H](NC(=O)[C@H](CO)NC(=O)[C@H](Cc1ccc(O)cc1)NC(=O)[C@H](CC(=O)O)NC(=O)[C@H](CO)NC(=O)[C@@H](NC(=O)[C@H](Cc1ccccc1)NC(=O)[C@@H](NC(=O)CNC(=O)[C@H](CCC(=O)O)NC(=O)C(C)(C)C(=O)NCCN1C(=O)CSC1=O)[C@@H](C)O)[C@@H](C)O)C(=O)N[C@@H](Cc1ccc(O)cc1)C(=O)N[C@@H](CC(C)C)C(=O)N[C@@H](CC(=O)O)C(=O)N[C@@H](CCCCN)C(=O)N[C@@H](CCC(N)=O)C(=O)N[C@@H](C)C(=O)N[C@@H](C)C(=O)NC(C)(C)C(=O)N[C@@H](CCC(=O)O)C(=O)N[C@@H](Cc1ccccc1)C(=O)N[C@H](C(=O)N[C@@H](CC(N)=O)C(=O)N[C@@H](Cc1c[nH]c2ccccc12)C(=O)N[C@@H](CC(C)C)C(=O)N[C@@H](CC(C)C)C(=O)N[C@@H](C)C(=O)NCC(=O)NCC(=O)N1CCC[C@H]1C(=O)N[C@@H](CO)C(=O)N[C@@H](CO)C(=O)NCC(=O)N[C@@H](C)C(=O)N1CCC[C@H]1C(=O)N1CCC[C@H]1C(=O)N1CCC[C@H]1C(=O)N[C@@H](CO)C(=O)N[C@@H](CCCCN)C(N)=O)C(C)C [Compound 153] | 75 to 85 | 10 to 100 | 75 to 85 | 10 to 100 | 107 | < 0.1 | 107 | < 0.1 | 10 to 1000 | – | – | – | – | – |
| CC[C@H](C)[C@H](NC(=O)[C@H](CO)NC(=O)[C@H](Cc1ccc(O)cc1)NC(=O)[C@H](CC(=O)O)NC(=O)[C@H](CO)NC(=O)[C@@H](NC(=O)[C@H](Cc1ccccc1)NC(=O)[C@@H](NC(=O)CNC(=O)[C@H](CCC(=O)O)NC(=O)CCCNC(=O)CCN1C(=O)c2ccccc2C1=O)[C@@H](C)O)[C@@H](C)O)C(=O)N[C@@H](Cc1ccc(O)cc1)C(=O)N[C@@H](CC(C)C)C(=O)N[C@@H](CC(=O)O)C(=O)N[C@@H](CCCCN)C(=O)N[C@@H](CCC(N)=O)C(=O)N[C@@H](C)C(=O)N[C@@H](C)C(=O)NC(C)(C)C(=O)N[C@@H](CCC(=O)O)C(=O)N[C@@H](Cc1ccccc1)C(=O)N[C@H](C(=O)N[C@@H](CC(N)=O)C(=O)N[C@@H](Cc1c[nH]c2ccccc12)C(=O)N[C@@H](CC(C)C)C(=O)N[C@@H](CC(C)C)C(=O)N[C@@H](C)C(=O)NCC(=O)NCC(=O)N1CCC[C@H]1C(=O)N[C@@H](CO)C(=O)N[C@@H](CO)C(=O)NCC(=O)N[C@@H](C)C(=O)N1CCC[C@H]1C(=O)N1CCC[C@H]1C(=O)N1CCC[C@H]1C(=O)N[C@@H](CO)C(=O)N[C@@H](CCCCN)C(N)=O)C(C)C [Compound 154] | 78 | 1 to 10 | 78 | 1 to 10 | 80 | 1 to 10 | 80 | 1 to 10 | > 1000 | – | – | – | – | – |
